Tests used:
[1] = Clinical DDI study in healthy adults; format: in vivo, human; settings: for AUC(0-t) / Cmax: both, human, plasma, oral
[2] = PBPK model; cited from earlier work
CYP3A [3] = test system: CYP3A; parameters: species or system human; settings: refined to recover observed midazolam AUCR; 1/18 of the in vitro k inact
infants with Type 1 SMA = settings: cited from earlier work
CYP3A [4] = settings: both, human, plasma, po, 2 mg, probe midazolam
[5] = cited from earlier work

Row | Compound | tolerability ([1]; 14 days, alone and coadministered with midazolam, healthy adults) | AUC(0-t) ([1]; 5 mg) [ng·h/mL] | Cmax ([1]; 5 mg) [ng/mL] | AUC(0-t) ([1]; 8 mg) [ng·h/mL] | Cmax ([1]; 8 mg) [ng/mL] | hepatic intrinsic CL via CYP3A share of clearance [2] [%] | hepatic intrinsic CL via FMO3 share of clearance [2] [%] | renal CL (CLR) share of clearance [2] [%] | in vivo k inact (CYP3A [3]) | increase in the SMN protein (infants with Type 1 SMA) | AUC(0-t) (CYP3A [4]) [ng·h/mL] | Cmax (CYP3A [4]) [ng/mL] | UGT1A4 contribution to clearance ([5]; adults) | FG (intestinal availability) [5]
1 | Cc1cn2nc(-c3cc(=O)n4cc(N5CCNC6(CC6)C5)ccc4n3)cc(C)c2n1 [risdiplam, Risdiplam] | well tolerated | 1250 | 78.6 | 1730 | 113 | 20 | 75 | 5 | in vivo k inact ^e = 0.22/hour | approximately twofold |  |  |  | 
2 | Cc1ncc2n1-c1ccc(Cl)cc1C(c1ccccc1F)=NC2 [midazolam] |  |  |  |  |  |  |  |  |  |  | 19.9 | 7.65 | 1–2% | 0.55

— publication PMC9291816 (Clinical Pharmacology and Therapeutics, 2021)
